Laboratory results: US20260256814A1, “COMBINATION FOR THE TREATMENT OF INFECTIONS CAUSED BY MYCOPLASMA GENITALIUM” (GLAXOSMITHKLINE INTELLECTUAL PROPERTY DEVELOPMENT LIMITED, priority 2019, published 2026)
≈ marks a conversion by molar mass, not a printed value. Where two headings read alike, the source gives them in different places.

Key:
[1] = test system: Mycoplasma genitalium; assay: Determination of minimum bactericidal concentration (MBC), Vero-cell culture, qPCR; assay type: cell-based; settings: Mycoplasmoides genitalium, read-out: median MBC
Description: After incubation for MIC determination, 15 μl of culture medium was transferred from the MIC plate to 135 μl fresh Vero-cell suspension, resulting in a 10-fold dilution of gepotidacin. Plates were sealed and incubated for four weeks and Mycoplasma genitalium growth was subsequently determined by qPCR. MBC was defined as the minimal concentration of the test-antibiotic causing a 99% inhibition of growth when compared to the mean of the control culture wells grown without antibiotic.

[2] = test system: Mycoplasma genitalium; assay: Determination of minimum inhibitory concentration (MIC) by the Vero-cell culture method, growth by qPCR; assay type: cell-based
Description: A collection of 54 Mycoplasma genitalium isolates originating from 51 patients were tested. Thirty-one strains were macrolide-resistant, with azithromycin MICs of ≥16 μg/mL and mutations in 23S rRNA gene positions A2058 (n=17) or A2059 (n=14, E. coli numbering). Eighteen strains were moxifloxacin-resistant (MIC≥1 μg/ml); 17 had dual resistance and were resistant to both moxifloxacin and azithromycin.
Gepotidacin minimal inhibitory concentrations (MICs) were determined by the Vero-cell culture method for all 54 isolates and minimal bactericidal concentrations (MBCs) against 44 Mycoplasma genitalium strains. Gepotidacin, azithromycin, doxycycline, and moxifloxacin MICs were determined by inoculating 5000 genome equivalents (geq) as determined by quantitative PCR (qPCR) into a Vero-cell culture containing two-fold dilutions of test-antibiotic (Hamasuna et al., Antimicrob. Agents Chemother 49, 4993-4998 (2005)). After a three-week incubation period, cells and supernatant were harvested and growth of Mycoplasma genitalium was determined by qPCR. MIC was defined as the minimal concentration of the test-antibiotic causing a 99% inhibition of growth when compared to the mean of the control cultures grown without antibiotic.

[3] = test system: Mycoplasma genitalium; settings: alternative treatment of Mycoplasma genitalium infection; cited from earlier work
[4] = 18 moxifloxacin-resistant isolates
[5] = 36 moxifloxacin-susceptible isolates
[6] = all 54 isolates, Vero-cell culture
[7] = Mycoplasmoides genitalium, all 54 isolates (36 moxifloxacin-susceptible and 18 moxifloxacin-resistant), Vero-cell culture, 99% inhibition of growth, read-out: MIC50
[8] = Mycoplasmoides genitalium, all 54 isolates, Vero-cell culture, read-out: MIC90

O=c1ccc2ncc(=O)n3c2n1C[C@H]3CN1CCC(NCc2cc3c(cn2)OCCC3)CC1 [Gepotidacin, (2R)-2-({4-[(3,4-dihydro-2/pyrano[2,3-c]pyridin-6-ylmethyl)amino]-1-piperidinyl}methyl)-1,2-dihydro-3H,8/2a,5,8a-triazaacenaphthylene-3,8-dione]
MBC [1]: 0.125 µg/mL (≈ 0.279 µM) | MIC90 [2, 4]: 0.25 µg/mL (≈ 0.557 µM) | MIC range [2, 4]: ≤0.016 to 0.5 µg/mL | MIC90 [2, 5]: 0.25 µg/mL (≈ 0.557 µM) | MIC range [2, 5]: 0.032 to 0.5 µg/mL | median MIC ([2]; 44 isolates for which MBCs were available): 0.064 µg/mL | difference in MIC between fluoroquinolone-, dual-resistant and -susceptible isolates ([2]; 54 isolates, p=0.2): no difference | difference in MIC between macrolide-resistant and -susceptible isolates ([2]; 54 isolates, p=0.24): no difference | MIC90 ([2]; Mycoplasmoides genitalium): 0.25 µg/mL (≈ 0.557 µM) | MIC50 ([2]; Mycoplasmoides genitalium, 18 moxifloxacin-resistant isolates): 0.064 µg/mL (≈ 0.143 µM) | MIC50 ([2]; Mycoplasmoides genitalium, 36 moxifloxacin-susceptible isolates): 0.125 µg/mL (≈ 0.279 µM) | MIC ([2]; Mycoplasmoides genitalium, read-out: median MIC, 44 isolates for which MBCs were available): 0.064 µg/mL (≈ 0.143 µM) | MIC ([2]; Mycoplasmoides genitalium, read-out: median MIC, all 54 isolates): 0.125 µg/mL (≈ 0.279 µM) | MIC ([2]; Mycoplasmoides genitalium, read-out: modal MIC, all 54 isolates): 0.125 µg/mL (≈ 0.279 µM) | MIC50 ([2]; Mycoplasmoides genitalium, all 54 isolates (36 moxifloxacin-susceptible and 18 moxifloxacin-resistant), Vero-cell culture, 99% inhibition of growth): 0.125 µg/mL (≈ 0.279 µM) | MIC range ([2]; all 54 isolates): ≤0.016 to 0.5 µg/mL | MIC90 [2, 6]: 0.25 µg/mL (≈ 0.557 µM) | MIC range [2, 6]: ≤0.016 to 0.5 µg/mL | cross-resistance to the tested comparators ([2]; all isolates incl. fluoroquinolone- and macrolide-resistant): no cross-resistance

C[C@H]1c2cccc(O)c2C(=O)C2=C(O)[C@]3(O)C(=O)C(C(N)=O)=C(O)[C@@H](N(C)C)[C@@H]3[C@@H](O)[C@@H]21 [Doxycycline, reference compound]
MIC50 [2, 7]: 0.5 µg/mL (≈ 1.13 µM) | MIC90 [2, 8]: 1 µg/mL (≈ 2.25 µM) | MIC range [2, 6]: 0.06 to 2 µg/mL

pristinamycin
effective [3]: 80%

CC[C@H]1OC(=O)[C@H](C)[C@@H](O[C@H]2C[C@@](C)(OC)[C@@H](O)[C@H](C)O2)[C@H](C)[C@@H](O[C@@H]2O[C@H](C)C[C@H](N(C)C)[C@H]2O)[C@](C)(O)C[C@@H](C)CN(C)[C@H](C)[C@@H](O)[C@]1(C)O [Azithromycin, reference compound]
MIC ([2]; Mycoplasmoides genitalium, read-out: MICs, 31 macrolide-resistant strains (23S rRNA A2058 or A2059 mutations)): ≥ 16 µg/mL | MIC50 [2, 7]: 16 µg/mL (≈ 21.4 µM) | MIC90 [2, 8]: > 64 µg/mL | MIC90 [2, 6]: >64 µg/mL

COc1c(N2C[C@@H]3CCCN[C@@H]3C2)c(F)cc2c(=O)c(C(=O)O)cn(C3CC3)c12 [Moxifloxacin, reference compound]
MIC ([2]; Mycoplasmoides genitalium): ≥ 1 µg/mL | MIC50 ([2]; Mycoplasmoides genitalium): 0.25 µg/mL (≈ 0.623 µM) | MIC90 ([2]; Mycoplasmoides genitalium): 4 µg/mL (≈ 9.96 µM) | MIC90 [2, 6]: 4 µg/mL (≈ 9.96 µM)
